From patent US20260363987A1, “Novel Peptide Exhibiting Skin Condition Improvement Activity and Cosmetic Composition Containing Same” (DAEBONG LS CO., LTD., priority 2023, published 2026)

Columns and labels:
B16F10 cells = assay: Melanin synthesis inhibition in α-MSH-treated melanocytes; format: cell-based, mouse; details: 72 hours
Experimental: Mouse-derived melanocytes (B16F10 cells) were obtained from the American Type Culture Collection (ATCC) and used. The cells were cultured in Dulbecco's Modified Eagle's Medium (DMEM) supplemented with 1% penicillin-streptomycin and 10% fetal bovine serum (FBS) at 37 °C in a 5% CO2 incubator, and subcultured every 3 to 4 days.
B16F10 cells were seeded at 6.0×10^4 cells/well in a 6-well plate and cultured for 24 hours at 37 °C in a 5% CO2 incubator. The culture medium was then replaced with phenol red-free, serum-free DMEM, followed by treatment with α-MSH, a melanin production-inducing hormone, and the peptide from the above Preparation Example at concentrations ranging from 1 to 100 μM. The cells were incubated for 72 hours, after which they were collected and lysed with 1 N NaOH in an 80 °C heating block to dissolve intracellular melanin. The absorbance of the resulting solution was measured at 490 nm. The control group was treated with arbutin at a concentration of 500 μg/mL.

NHDF cells = assay: Procollagen Type I Peptide (PIP) production, EIA; format: cell-based, human
Experimental: Normal Human Dermal Fibroblasts (NHDF) were obtained from Lonza (Lonza Walkersville, Inc.) and cultured in FBM (Fibroblast Basal Medium) supplemented with 0.1% hFGF-B, insulin, GA-1000, and 2% FBS at 37 °C in a 5% CO2 incubator. Subculture was performed every 2 to 3 days.
NHDF cells were seeded at 2.0×10^4 cells/well in a 24-well plate and incubated for 24 hours at 37 °C in a 5% CO2 incubator. After incubation, the culture medium was replaced with serum-free FBM, and the peptide prepared in the above Example was applied at concentrations of 1-100 μM, followed by incubation for 24 hours. The supernatant from each experimental group was collected, and the amount of procollagen released into the medium was measured. The positive control group was treated with ascorbic acid at a concentration of 0.001 v/v %. Measurement of procollagen levels was performed using a Procollagen Type I Peptide (PIP) EIA Kit (Takara Biomedical Co.) according to the manufacturer's protocol. The quantitative results of procollagen type I peptide production following treatment with the peptide of the Example are shown in Table 2 and FIG. 3.

HaCaT cells = assay: Hyaluronic acid (HA) production, ELISA; format: cell-based, human
Experimental: The HaCaT human keratinocyte cell line was obtained from Cell Line Service GmbH (Germany). The cells were cultured in DMEM containing 1% penicillin-streptomycin and 10% fetal bovine serum (FBS) at 37 °C in a 5% CO2 incubator, and subculture was performed every 2 to 3 days.
HaCaT cells were seeded at 1.0×10^5 cells/well in a 24-well plate and incubated for 24 hours at 37 °C in a 5% CO2 incubator. After incubation, the culture medium was replaced with serum-free DMEM, and the peptide prepared in the above Example was applied at concentrations of 50-200 μM, followed by incubation for 24 hours. The supernatant from each experimental group was collected, and the amount of hyaluronic acid (HA) released into the medium was measured. The positive control group was treated with N-acetylglucosamine at a concentration of 10 mM. Measurement of hyaluronic acid production was conducted using a Hyaluronic Acid ELISA Kit (Cusabio Biotechnology Co., Ltd.) following the manufacturer's protocol.

OC[C@H]1O[C@@H](Oc2ccc(O)cc2)[C@H](O)[C@@H](O)[C@@H]1O [Arbutin, arbutin, reference compound]
activity at 500 µg/mL (B16F10 cells; Mus musculus, B16-F10, 500 μg/mL, control, with α-MSH (200 nM), α-MSH alone = 100 ± 3.6, untreated = 75 ± 3.04, read-out: Melanin production): 59.6 ± 0.8%

O=C1O[C@H]([C@@H](O)CO)C(O)=C1O [Asc.A, ascorbic acid, reference compound]
activity at 10 µg/mL (NHDF cells; Homo sapiens, NHDF, 24 h, 10 μg/mL, positive control, untreated group = 100 ± 1.29): 159 ± 3.8%

CC(=O)N[C@H]1C(O)O[C@H](CO)[C@@H](O)[C@@H]1O (stereo partly shown) [NAG, N-acetylglucosamine, reference compound]
activity at 10000 µM (HaCaT cells; Homo sapiens, HaCaT, 24 h, 10 mM, positive control, untreated group = 100 ± 5.15): 125.5 ± 1.18%

Ala-Ala-Gln-Pro-Arg (AAQPR; printed: Ala-Ala-Gln-Pro-Arg)
Procollagen production (NHDF cells; 1 μM, 24 hours, untreated group = 100 ± 1.29): 105.45 ± 3.15% | Procollagen production (NHDF cells; 10 μM, 24 hours, untreated group = 100 ± 1.29): 129.75 ± 9.74% | Procollagen production (NHDF cells; 50 μM, 24 hours, untreated group = 100 ± 1.29): 132.64 ± 13.74% | Procollagen production (NHDF cells; 100 μM, 24 hours, untreated group = 100 ± 1.29): 134.92 ± 1.3% | procollagen production (in words) (NHDF cells; 1-100 μM, 24 hours): increase in procollagen production | Hyaluronic acid production (HaCaT cells; 50 μM, 24 hours, untreated group = 100 ± 5.15): 107.14 ± 1.08% | Hyaluronic acid production (HaCaT cells; 100 μM, 24 hours, untreated group = 100 ± 5.15): 130.93 ± 0.59% | Hyaluronic acid production (HaCaT cells; 200 μM, 24 hours, untreated group = 100 ± 5.15): 136.91 ± 6.87% | hyaluronic acid production (in words) (HaCaT cells; 50-200 μM, 24 hours): increase in hyaluronic acid production | Melanin production (B16F10 cells; 1 μM, with α-MSH (200 nM), α-MSH alone = 100 ± 3.6, untreated = 75 ± 3.04): 100.86 ± 4.32% | Melanin production (B16F10 cells; 10 μM, with α-MSH (200 nM), α-MSH alone = 100 ± 3.6, untreated = 75 ± 3.04): 89.62 ± 2.95% | Melanin production (B16F10 cells; 100 μM, with α-MSH (200 nM), α-MSH alone = 100 ± 3.6, untreated = 75 ± 3.04): 79.76 ± 4.18% | melanin production (in words) (B16F10 cells; 1-100 μM, with α-MSH): inhibited melanin production
